Consider seven compounds from patent US20150073008A1, “Topical Application of Vinca Alkaloids for the Treatment of Actinic Keratosis” (Merz Pharma GmbH & Co. KGaA, priority 2013, published 2015).

A word on the pIC50: it is −log10 of the IC50, conventionally taken in molar units.

pIC50: −log10 of the molar value. Counter-ions that a name gives are not always drawn. Like-named read-outs stand apart in the source and are kept apart here.

One data set in a line: Stability at pH 5.5. The data set is classed as physicochemical. The protocol: Some topical formulations may have a reduced stability at a temperature of 37° C. and a pH-value of 7 or more, e.g. a pH-value of 7.4.
For data set [1], the system named is SCC-111 cells. The note with it: for DCF-value: after repeating the experiments several times.
The nature of another data set: Solubility. The note with it: pH 6.5.
The test system of data set [2] is human skin (Leiden epidermal skin). As to the kind of experiment: Methylthiazol Tetrazolium-Assay (MTT) skin irritation, in vitro human skin model. The conditions noted are these: doses of 100-times the in vitro IC50-values; irritant = metabolic activity of skin model reduced to ≦50%. The data set is classed as cell-based. The source says: This leads to the option to apply the vinca-compositions not only to single affected skin lesions (“spots”) but also to larger areas of the skin, e.g. for “field treatment”, and often even >5% (or >10%) of the skin surface (of the individual).

Data set [3] has as its system proliferating and non-proliferating cells. As to the kind of experiment: Comparative test of cell density as a function of time (normal and high cell density). The data set is classed as cell-based.
Data set [4] has as its system SCC-111 cells. As to the kind of experiment: cells. The conditions noted are these: Homo sapiens, read-out: in vitro IC50-value (in SCC-111 cells).
Data set [5] in a line: Dermal absorption study with human skin (Franz diffusion cells, 3H-API). The note with it: different concentrations and formulations (cream, liposomes, hydro-tops).
Description: The vinca alkaloids were tested in different concentrations and in different formulations (such as cream, liposomes and hydro-tops).
Skin Preparations: Female human abdominal skins from plastic surgery were used. The subcutaneous fatty tissue was removed from the skin and then frozen at −20° C. with aluminium foil packed for later tests. Before use, skin disks of 18 mm diameter were punched, cleaned with PBS (phosphate buffered saline, pH 7.4, 10 mM) and thaw with the stratum corneum (SC) side up open to the atmosphere and the dermal side bathed with PBS for 2 hrs.
The dermal side of the skin was exposed to the receptor fluid (PBS) and the SC remained in contact with the donor compartment left dry and opened to the atmosphere. The temperature of the water bath was maintained at 37±0.1° C. The receptor solution was continuously stirred at 700 rpm with a small bar magnet placed inside the cell. Ten μl of Hydro-Tops or liposomes or 10 mg of the cream formulation were applied onto the skin's surface and uniformly spread by pipettes or spatula. The spatula was weighted again after the application of the cream to determine the applied dose. This means an application dose of 1 μg API per square cm. Samples (0.7 ml) were taken from the receptor fluid at 3, 6, 12, 18 and 24 hrs after application. At each point, the receptor cell content was replaced by 0.7 ml of fresh PBS solution. Three replicates were used for the studies (same skin preparations)
Tape Stripping: The distribution of API in the stratum corneum was determined by the tape stripping technique. After 24 hours the skin was taken, stretched and mounted with pins on cork discs and covered with aluminium mask with a central hole of 8 mm in diameter. […]
Measurement of 3H-API: The samples (standards, strips and fluids) were mixed with 12 ml Rotiszint eco plus (scintillation cocktail purchased from Carl Roth) and carefully vortexed for at least 1 minute. […] The activity in each sample was determined in a scintillation counter (Tri-Carb 2910TR Liquid Scintillation Analyzer; Perkin Elmer) by a standardized protocol.
[6] abbreviates: IC50 in 0% FBS divided by IC50 in 20% FBS, SCC-111 cells.
[7] abbreviates: read-out: in vitro IC50-value (in SCC-111 cells), SCC-111 cells, serum condition not stated.

In the case of Vinblastine sulfate hydrate, the “stability (compound remaining)” value in “Stability at pH 5.5” (pH 5.5, test for 7 days, 5° C.) was 97%. In the data set with SCC-111 cells [1] (setting [6]), this compound returned a DCF-value of 19.87. For the same compound, the pIC50 in the data set on SCC-111 cells [1] (setting [7]) was 9.06. The same compound returned a solubility in the data set “Solubility” of 0.25%. Besides, the “skin irritation rating in MTT assay” value in data set [2] is given as “not rated as irritant”.

`O=c1[nH]cc(F)c(=O)[nH]1` [Example 5-FU, 5-Fluorouracil] gave a DCF-value in the data set with SCC-111 cells [1] (setting [6]) of 0.73. In addition, in data set [3], the “effect on number of cells at normal (proliferating) and high (non-proliferating) cell density” value is given as “cells were affected, independent of their proliferation-status”. The pIC50 with SCC-111 cells [4] was 6.02.

On to `COc1cc([C@@H]2c3cc4c(cc3[C@@H](O[C@@H]3O[C@@H]5CO[C@@H](c6cccs6)O[C@H]5[C@H](O)[C@H]3O)[C@H]3COC(=O)[C@H]23)OCO4)cc(OC)c1O` [Teniposide], for which, in the data set on SCC-111 cells [1] (setting [6]), the DCF-value is listed as 5.76.

As for `CC[C@]1(O)C[C@@H]2CN(CCc3c([nH]c4ccccc34)[C@@](C(=O)OC)(c3cc4c(cc3OC)N(C)[C@H]3[C@@](O)(C(N)=O)[C@H](O)[C@]5(CC)C=CCN6CC[C@]43[C@@H]65)C2)C1` [Vindesine, Vindesine sulfate hydrate], the “stability (compound remaining)” value in the data set “Stability at pH 5.5” (buffer, 168 h, pH 5.5) worked out at 98.8%. The same compound gave a DCF-value with SCC-111 cells [1] (setting [6]) of 11.43. In addition, the “DCF-value (differential cytotoxicity factor) from FIGS. 1 and 2” value in the data set on SCC-111 cells [1] (IC50 in 0% FBS divided by IC50 in 20% FBS, single example experiment) is given as more than 10. The pIC50 was 8.46 with SCC-111 cells [1] (read-out: IC50-value, 0% FBS medium cultivated cells (FIG. 2), SCC-111, 0% FBS (low proliferation), DNA-content, 72 hours); 9.47 in the data set on SCC-111 cells [1] (read-out: IC50-value, 20% FBS medium cultivated cells (FIG. 1), SCC-111, 20% FBS (high proliferation), DNA-content, 72 hours); 9.24 in the data set on SCC-111 cells [1] (setting [7]). The “dermal absorption (in words)” value in data set [5] was “good dermal absorption”. Besides, in data set [2], the “skin irritation rating in MTT assay” value was “not rated as irritant”.

On to `CC[C@]1(O)C[C@H]2CN(CCc3c([nH]c4ccccc34)[C@@](C(=O)OC)(c3cc4c(cc3OC)N(C=O)[C@H]3[C@@](O)(C(=O)OC)[C@H](OC(C)=O)[C@]5(CC)C=CCN6CC[C@]43[C@@H]65)C2)C1` [Vincristine, Vincristine sulfate], for which the solubility in water (pH 5.5) is listed as 0.57 % by weight. The “stability (compound remaining)” value in the data set “Stability at pH 5.5” (buffer, 168 h, pH 5.5) is given as 99.6%. The compound also gave a DCF-value in the data set on SCC-111 cells [1] (setting [6]) of 5.86. Moreover, the “dermal absorption (in words)” value in data set [5] is “good dermal absorption”. The “skin irritation rating in MTT assay” value in data set [2] is recorded as “not rated as irritant”. Besides, the negative logarithm of the IC50 (pIC50) with SCC-111 cells [4] is 9.04.

In turn, `CCC1=C[C@@H]2CN(C1)Cc1c([nH]c3ccccc13)[C@@](C(=O)OC)(c1cc3c(cc1OC)N(C)[C@H]1[C@@](O)(C(=O)OC)[C@H](OC(C)=O)[C@]4(CC)C=CCN5CC[C@]31[C@@H]54)C2` [Vinorelbine] displayed a solubility (pH 6.5) of 0.7%. For the same compound, the “stability (compound remaining)” value in the data set “Stability at pH 5.5” (buffer, 168 h, pH 5.5) came to 99.5%. Besides, the DCF-value in the data set with SCC-111 cells [1] (setting [6]) was found to be 6.42. Also, in data set [5], the “dermal absorption (in words)” value is “good dermal absorption”. Besides, the “skin irritation rating in MTT assay” value in data set [2] is recorded as “not rated as irritant”. Also, in the data set with SCC-111 cells [4], the pIC50 was 8.87.

In the case of `COc1cccc2c1C(=O)c1c(O)c3c(c(O)c1C2=O)C[C@@](O)(C(=O)CO)C[C@@H]3O[C@H]1C[C@H](N)[C@@H](O)[C@H](C)O1` [Epirubicin, Epirubicin HCL], in the data set on SCC-111 cells [1] (setting [6]), the DCF-value was found to be 6.05.
